Data reported in patent US20230183239A1, “ECTONUCLEOTIDE PYROPHOSPHATASE-PHOSPHODIESTERASE 1 (ENPP-1) INHIBITORS AND USES THEREOF” (AbbVie Inc., priority 2017, published 2023).

Tests used:
Type in all cases: biochemical
[1] = biological target: T1, ENPP1 (Homo sapiens, UniProt P22413); assay: Indirect quantitation of 2',3'-cGAMP hydrolysis (AMP-Glo Assay kit); conditions: cGAMP substrate; Ki from IC50 by Cheng-Prusoff; read-out: ENPP1 Inhibition -cGAMP: Ki
T1 sequence (P22413 1-925): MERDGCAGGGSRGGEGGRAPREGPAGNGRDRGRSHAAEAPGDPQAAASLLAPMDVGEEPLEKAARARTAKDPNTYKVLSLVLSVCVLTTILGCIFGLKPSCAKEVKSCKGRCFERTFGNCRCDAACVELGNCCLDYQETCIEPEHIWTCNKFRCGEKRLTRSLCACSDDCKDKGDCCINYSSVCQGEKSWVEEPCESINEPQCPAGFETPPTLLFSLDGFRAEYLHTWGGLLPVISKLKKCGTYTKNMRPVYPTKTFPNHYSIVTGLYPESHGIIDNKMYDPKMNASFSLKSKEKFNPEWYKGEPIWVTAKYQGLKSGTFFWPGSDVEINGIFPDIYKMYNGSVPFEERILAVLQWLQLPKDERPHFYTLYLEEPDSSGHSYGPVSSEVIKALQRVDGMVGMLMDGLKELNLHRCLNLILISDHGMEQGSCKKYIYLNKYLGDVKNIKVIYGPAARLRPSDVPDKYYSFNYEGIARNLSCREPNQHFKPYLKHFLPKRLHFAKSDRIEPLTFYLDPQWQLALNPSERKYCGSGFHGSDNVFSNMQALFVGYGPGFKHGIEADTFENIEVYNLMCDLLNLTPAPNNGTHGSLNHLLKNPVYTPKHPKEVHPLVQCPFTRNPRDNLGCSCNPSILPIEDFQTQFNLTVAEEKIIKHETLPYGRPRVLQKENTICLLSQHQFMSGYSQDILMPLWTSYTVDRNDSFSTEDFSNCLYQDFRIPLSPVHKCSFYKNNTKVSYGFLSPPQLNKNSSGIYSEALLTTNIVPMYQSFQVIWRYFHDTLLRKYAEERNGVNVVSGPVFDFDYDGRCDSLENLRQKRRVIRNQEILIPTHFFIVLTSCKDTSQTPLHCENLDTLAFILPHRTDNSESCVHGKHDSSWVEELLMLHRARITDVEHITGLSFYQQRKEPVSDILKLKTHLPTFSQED

[2] = biological target: T1, ENPP1; assay: ENPP1 enzyme assay with AMP-pNP substrate (hydrolysis of ATP analog); conditions: AMP-pNP substrate (ATP analog); Ki from IC50 by Cheng-Prusoff; read-out: ENPP1 Inhibition _AMP-pNP: Ki
Protocol: The ENPP1 assay with AMP-pNP substrate is conducted in a buffer containing 50 mM Tris-HCl (pH 8.5)/ 250 mM NaCl/0.5 mM CaCl2/1 µM ZnCl2/0.1% DMSO. Inhibitors are added at final concentrations ranging between 10 µM and 30 pM depending on the compound. Duplicate wells are run at each inhibitor concentration. The final assay volume is 40 µL and human recombinant ENPP1 is present at 60 ng/well. The assay is initiated by the addition of substrate (300 µM AMP-pNP final concentration), and incubated for 20 minutes at 37° C. […] Each assay plate also includes wells with no enzyme added (MIN OD) and wells with no inhibitor added (MAX OD). The percent inhibition of ENPP1 for each sample is then calculated as: […]
IC50 values of compounds were calculated by entering the percent inhibition values into a sigmoidal variable slope nonlinear regression model in GraphPad Prism® software.

[3] = biological target: T1, ENPP1; assay: Substrate selectivity ratio, inhibition of cGAMP hydrolysis versus ATP hydrolysis; conditions: ratio Ki AMP-pNP / Ki cGAMP
Protocol: The selectivity ratios for inhibition of cGAMP hydrolysis versus ATP hydrolysis were then calculated as follows: […]

Ki [1] [nM]	Ki [2] [nM]	Substrate Selectivity: Ki_AMP-pNP/Ki_cGAMP [3]	Compound
> 1000	> 1000	–	COc1cc2ncnc(N(C)c3ccc(NS(N)(=O)=O)cc3)c2cc1OC [Example 190, N-(4-((6,7-dimethoxyquinazolin-4-yl)(methyl)amino)phenyl)sulfamide]
–	> 1000	39.4	COc1cc2ncnc(N3CCC4(CC3)CN(S(N)(=O)=O)C4)c2cc1OC [Example 30, 7-(6,7-dimethoxyquinazolin-4-yl)-2,7-diazaspiro[3.5]nonane-2-sulfonamide]
100 to 1000	> 1000	–	COc1ccc2c(-c3ccc4c(c3)CN(S(N)(=O)=O)CC4)c(C#N)cnc2c1 [Example 249, 7-(3-cyano-7-methoxyquinolin-4-yl)-3,4-dihydroisoquinoline-2(1H)-sulfonamide]
< 100	< 100	–	COc1cc2nccc(Oc3ccc(NS(N)(=O)=O)cc3)c2cc1F [Example 282, N-(4-((6-fluoro-7-methoxyquinolin-4-yl)oxy)phenyl)sulfamide]
> 1000	–	–	COc1cc2ncnc(N3CCC(Cn4c(N)nc5ccccc54)CC3)c2cc1OC [Example 252, 1-((1-(6,7-dimethoxyquinazolin-4-yl)piperidin-4-yl)methyl)-1H-benzo[d]imidazol-2-amine]
< 100	–	–	COc1ccc2c(Oc3ccc(N(C4CC4)S(N)(=O)=O)cc3)ccnc2c1 [Example 310, N-cyclopropyl-N-(4-((7-methoxyquinolin-4-yl)oxy)phenyl)sulfamide]
> 1000	–	–	COc1ccc2c(c1)OCC(=O)N2Cc1ccc(NS(N)(=O)=O)cc1 [Example 401, N-(4-((7-methoxy-3-oxo-2,3-dihydro-4H-benzo[b][1,4]oxazin-4-yl)methyl)phenyl)sulfamide]
> 1000	–	–	CCOc1ccc(S(=O)(=O)N2CCN(C)CC2)cc1-c1ncnc2cc(OC)c(OC)cc12 [Example 337, 4-(2-ethoxy-5-((4-methylpiperazin-1-yl)sulfonyl)phenyl)-6,7-dimethoxyquinazoline]
> 1000	–	–	COc1ccc2c(Oc3ccc(NS(N)(=O)=O)cc3OC)ccnc2c1 [Example 323, N-(3-methoxy-4-((7-methoxyquinolin-4-yl)oxy)phenyl)sulfamide]
100 to 1000	–	–	COc1cc2ncnc(N3CCC(CCNC(C)=O)CC3)c2cc1OC [Example 335, N-(2-(1-(6,7-dimethoxyquinazolin-4-yl)piperidin-4-yl)ethyl)acetamide]
> 1000	–	–	COc1cc2ncnc(NCc3ccc(S(=O)(=O)O)cc3)c2cc1OC [Example 161, 4-(((6,7-dimethoxyquinazolin-4-yl)amino)methyl)benzene sulfonic acid]
> 1000	–	–	COc1ccc2c(Oc3ccc(NS(N)(=O)=O)cc3)ccnc2c1F [Example 268, N-(4-((8-fluoro-7-methoxyquinolin-4-yl)oxy)phenyl)sulfamide]
< 100	–	–	COc1cc2nccc(Oc3ccc(NS(=O)(=O)C(F)(F)F)cc3)c2cc1OC [Example 162, N-(4-((6,7-dimethoxyquinolin-4-yl)oxy)phenyl)-1,1,1-trifluoromethanesulfonamide]
100 to 1000	> 1000	–	COc1cc2nccc(Nc3ccc(NS(=O)(=O)C(F)(F)F)cc3)c2cc1OC [Example 174, N-(4-((6,7-dimethoxyquinolin-4-yl)amino)phenyl)-1,1,1-trifluoromethanesulfonamide]
> 1000	–	–	COc1cc2ncc(-c3ccc4c(c3)CN(S(N)(=O)=O)CC4)nc2cc1OC [Example 295, 7-(6,7-dimethoxyquinoxalin-2-yl)-3,4-dihydroisoquinoline-2(1H)-sulfonamide]
100 to 1000	–	–	Cn1ncc2c(N3CCC(CCNS(N)(=O)=O)CC3)ccnc21 [Example 135, N-(2-(1-(1-methyl-1H-pyrazolo[3,4-b]pyridin-4-yl)piperidin-4-yl)ethyl)sulfamide]

Ki [1] [nM]	Ki [2] [nM]	Substrate Selectivity: Ki_AMP-pNP/Ki_cGAMP [3]	Compound
> 1000	> 1000	–	NS(=O)(=O)NCCC1CCN(c2cc(-c3ccc4c(c3)OCO4)ncn2)CC1 [Example 10, N-(2-(1-(6-(benzo[d][1,3]dioxol-5-yl)pyrimidin-4-yl)piperidin-4-yl)ethyl)sulfamide]
100 to 1000	–	–	Cn1cc(Br)c2ncnc(N3CCC(CCNS(N)(=O)=O)CC3)c21 [Example 138, N-(2-(1-(7-bromo-5-methyl-SH-pyrrolo[3,2-d]pyrimidin-4-yl)piperidin-4-yl)ethyl)sulfamide]
> 1000	–	–	COc1cc2ncnc(-c3ccc4c(c3)CCC(NS(N)(=O)=O)C4)c2cc1OC (centres unmarked) [Example 131, N-(6-(6,7-dimethoxyquinazolin-4-yl)-1,2,3,4-tetrahydronaphthalen-2-yl)sulfamide]
> 1000	–	–	COc1cc2ncnc(N3CCC(CCNS(=O)(=O)c4ccccc4)CC3)c2cc1OC [Example 116, N-(2-(1-(6,7-dimethoxyquinazolin-4-yl)piperidin-4-yl)ethyl)benzenesulfonamide]
100 to 1000	–	–	Cn1cnc2ncnc(-c3ccc(CNS(N)(=O)=O)cc3)c21 [Example 128, N-(4-(7-methyl-7H-purin-6-yl)benzyl)sulfamide]
> 1000	–	–	COc1cc2ncnc(N3CCC(CNc4nc5ccccc5[nH]4)CC3)c2cc1OC [Example 251, N-((1-(6,7-dimethoxyquinazolin-4-yl)piperidin-4-yl)methyl)-1H-benzo[d]imidazol-2-amine]
> 1000	–	–	COc1ccc(NC(=O)C2CCC(CNS(N)(=O)=O)CC2)cc1OC (centres unmarked) [Example 133, N-(3,4-dimethoxyphenyl)-4-((sulfamoylamino)methyl)cyclohe xane-1-carboxamide]
> 1000	–	–	COc1ccc2c(N3CCc4ccc(NS(N)(=O)=O)cc43)ccnc2c1 [Example 391, N-(1-(7-methoxyquinolin-4-yl)indolin-6-yl)sulfamide]
> 1000	–	–	COc1cc2ncnc(N3CCN(C(=O)CN)CC3)c2cc1OC [Example 119, 2-amino-1-(4-(6,7-dimethoxyquinazolin-4-yl)piperazin-1-yl)ethan-1-one]
100 to 1000	–	–	COc1ccc2c(-c3ccc(CNS(N)(=O)=O)cc3C)ccnc2c1 [Example 328, N-(4-(7-methoxyquinolin-4-yl)-3-methylbenzyl)sulfamide]
> 1000	–	–	Cc1ncnc(N2CCC(CCNS(N)(=O)=O)CC2)c1C [Example 15, N-(2-(1-(5,6-dimethylpyrimidin-4-yl)piperidin-4-yl)ethyl)sulfamide]
< 100	–	–	COc1cc2ncc(C#N)c(Oc3ccc(S(N)(=O)=O)cc3)c2cc1F [Example 76, 4-((3-cyano-6-fluoro-7-methoxyquinolin-4-yl)oxy)benzenesulfonamide]
> 1000	–	–	COc1cc2ncn(Cc3ccc(NS(N)(=O)=O)cc3)c(=O)c2cc1OC [Example 165, N-(4-((6,7-dimethoxy-4-oxoquinazolin-3 (4H)-yl)methyl)phenyl) sulfamide]
> 1000	–	–	COc1cc2ncc(Oc3ccc(NS(N)(=O)=O)cc3)nc2cc1OC [Example 280, N-(4-((6,7-dimethoxyquinoxalin-2-yl)oxy)phenyl)sulfamide]
100 to 1000	–	–	COc1ccc2c(-c3ccc4c(c3)CN(S(N)(=O)=O)CC4)c(C(F)(F)F)cnc2c1 [Example 408, 7-(7-methoxy-3-(trifluoromethyl)quinolin-4-yl)-3,4-dihydroisoquinoline-2(1H)-sulfonamide]
> 1000	–	–	COc1cc2nccc(Oc3ccc(N)cc3)c2cc1OC [Example 341, 4-((6,7-dimethoxyquinolin-4-yl)oxy)aniline]
